Laboratory results reported in ChEMBL document CHEMBL4507268 (2021).

Tests used:
[1] = molecular target: Sigma non-opioid intracellular receptor 1 (Homo sapiens, UniProt Q99720); settings: Compound concentration 10.0 uM
[2] = molecular target: T1, Homeodomain-interacting protein kinase 4 (Homo sapiens) (UniProt Q8NE63); settings: Compound concentration 1000.0 nM
T1 sequence (whole entry): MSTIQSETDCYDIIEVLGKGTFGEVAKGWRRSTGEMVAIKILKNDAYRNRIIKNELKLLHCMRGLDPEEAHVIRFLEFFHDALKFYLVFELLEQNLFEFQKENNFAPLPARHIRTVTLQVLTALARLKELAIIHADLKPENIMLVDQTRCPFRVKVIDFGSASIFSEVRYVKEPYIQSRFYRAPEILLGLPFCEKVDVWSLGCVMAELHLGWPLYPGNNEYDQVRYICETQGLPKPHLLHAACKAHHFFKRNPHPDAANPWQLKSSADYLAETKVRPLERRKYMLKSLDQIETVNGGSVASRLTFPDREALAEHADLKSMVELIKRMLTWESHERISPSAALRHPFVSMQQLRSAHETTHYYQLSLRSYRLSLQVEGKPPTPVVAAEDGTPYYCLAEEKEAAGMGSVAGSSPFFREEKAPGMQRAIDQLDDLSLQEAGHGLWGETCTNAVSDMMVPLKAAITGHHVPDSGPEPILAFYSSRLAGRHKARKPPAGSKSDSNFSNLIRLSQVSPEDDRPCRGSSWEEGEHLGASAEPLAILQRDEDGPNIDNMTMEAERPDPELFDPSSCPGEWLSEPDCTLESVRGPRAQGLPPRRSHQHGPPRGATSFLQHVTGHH

[3] = molecular target: Serine/threonine-protein kinase WNK3 (Homo sapiens) (UniProt Q9BYP7); settings: Compound concentration 1000.0 nM
[4] = molecular target: Mitogen-activated protein kinase kinase kinase kinase 1 (Homo sapiens) (UniProt Q92918); settings: Compound concentration 1000.0 nM
[5] = test system: Tyrosine-protein kinase ABL1 (Homo sapiens), P00519 [T315I]; settings: Compound concentration 1000.0 nM
[6] = molecular target: Serine/threonine-protein kinase WNK2 (Homo sapiens) (UniProt Q9Y3S1); settings: Compound concentration 1000.0 nM
[7] = molecular target: Receptor-type tyrosine-protein kinase FLT3 (Homo sapiens) (UniProt P36888); settings: Compound concentration 1000.0 nM
[8] = molecular target: Tyrosine-protein kinase Fes/Fps (Homo sapiens) (UniProt P07332); settings: Compound concentration 1000.0 nM
[9] = molecular target: Muscarinic acetylcholine receptor M1 (Homo sapiens) (UniProt P11229); settings: Compound concentration 10.0 uM
[10] = molecular target: Dual specificity tyrosine-phosphorylation-regulated kinase 1A (Homo sapiens) (UniProt Q13627); settings: Compound concentration 1000.0 nM
[11] = molecular target: Fibroblast growth factor receptor 2 (Homo sapiens) (UniProt P21802); settings: Compound concentration 1000.0 nM
[12] = molecular target: Cyclin-dependent kinase 8 (Homo sapiens) (UniProt P49336); settings: Compound concentration 1000.0 nM
[13] = molecular target: T2, Mitogen-activated protein kinase 12 (Homo sapiens) (UniProt P53778); settings: Compound concentration 1000.0 nM
T2 sequence (whole entry): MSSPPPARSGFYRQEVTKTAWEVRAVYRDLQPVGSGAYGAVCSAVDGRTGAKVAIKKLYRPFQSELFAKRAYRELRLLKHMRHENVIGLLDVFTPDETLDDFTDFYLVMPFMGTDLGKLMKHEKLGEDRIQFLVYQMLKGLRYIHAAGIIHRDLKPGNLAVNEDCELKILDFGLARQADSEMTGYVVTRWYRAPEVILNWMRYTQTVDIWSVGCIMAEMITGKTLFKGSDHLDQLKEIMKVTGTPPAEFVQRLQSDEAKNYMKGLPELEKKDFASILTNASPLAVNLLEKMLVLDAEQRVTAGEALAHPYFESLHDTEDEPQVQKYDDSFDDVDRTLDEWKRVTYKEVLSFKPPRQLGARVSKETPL

[14] = test system: Epidermal growth factor receptor (Homo sapiens), P00533 [UNDEFINED MUTATION]; settings: Compound concentration 1000.0 nM
[15] = molecular target: Casein kinase I isoform gamma-2 (Homo sapiens) (UniProt P78368); settings: Compound concentration 1000.0 nM
[16] = molecular target: BDNF/NT-3 growth factors receptor (Homo sapiens) (UniProt Q16620); settings: Compound concentration 1000.0 nM
[17] = molecular target: Interleukin-1 receptor-associated kinase 3 (Homo sapiens) (UniProt Q9Y616); settings: Compound concentration 1000.0 nM
[18] = molecular target: Ribosomal protein S6 kinase alpha-2 (Homo sapiens) (UniProt Q15349); settings: Compound concentration 1000.0 nM
[19] = molecular target: Death-associated protein kinase 2 (Homo sapiens) (UniProt Q9UIK4); settings: Compound concentration 1000.0 nM
[20] = molecular target: Serine/threonine-protein kinase 24 (Homo sapiens) (UniProt Q9Y6E0); settings: Compound concentration 1000.0 nM
[21] = molecular target: T3, Serine/threonine-protein kinase MAK (Homo sapiens) (UniProt P20794); settings: Compound concentration 1000.0 nM
T3 sequence (whole entry): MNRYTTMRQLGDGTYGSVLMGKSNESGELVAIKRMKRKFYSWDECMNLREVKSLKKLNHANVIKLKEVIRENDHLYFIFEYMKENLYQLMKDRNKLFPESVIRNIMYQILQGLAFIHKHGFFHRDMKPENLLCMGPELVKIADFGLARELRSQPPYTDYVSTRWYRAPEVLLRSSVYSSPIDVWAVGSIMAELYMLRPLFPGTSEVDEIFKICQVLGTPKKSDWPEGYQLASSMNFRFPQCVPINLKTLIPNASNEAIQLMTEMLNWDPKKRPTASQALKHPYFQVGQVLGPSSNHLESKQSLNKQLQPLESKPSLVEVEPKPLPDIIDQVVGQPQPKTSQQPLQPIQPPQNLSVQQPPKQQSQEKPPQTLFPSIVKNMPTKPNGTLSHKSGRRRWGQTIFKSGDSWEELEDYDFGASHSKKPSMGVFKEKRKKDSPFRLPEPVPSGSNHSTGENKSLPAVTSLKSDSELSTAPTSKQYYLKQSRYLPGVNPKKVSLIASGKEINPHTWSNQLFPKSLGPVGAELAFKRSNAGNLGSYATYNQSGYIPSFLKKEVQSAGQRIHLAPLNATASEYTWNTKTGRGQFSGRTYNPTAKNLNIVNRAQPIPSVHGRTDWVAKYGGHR

[22] = molecular target: 5-hydroxytryptamine receptor 2A (Homo sapiens) (UniProt P28223); settings: Compound concentration 10.0 uM
[23] = molecular target: Calcium-dependent protein kinase 1 (Plasmodium falciparum) (UniProt P62344); settings: Compound concentration 1000.0 nM

Sequence of Death-associated protein kinase 2 (Homo sapiens) (Q9UIK4 whole entry, looked up): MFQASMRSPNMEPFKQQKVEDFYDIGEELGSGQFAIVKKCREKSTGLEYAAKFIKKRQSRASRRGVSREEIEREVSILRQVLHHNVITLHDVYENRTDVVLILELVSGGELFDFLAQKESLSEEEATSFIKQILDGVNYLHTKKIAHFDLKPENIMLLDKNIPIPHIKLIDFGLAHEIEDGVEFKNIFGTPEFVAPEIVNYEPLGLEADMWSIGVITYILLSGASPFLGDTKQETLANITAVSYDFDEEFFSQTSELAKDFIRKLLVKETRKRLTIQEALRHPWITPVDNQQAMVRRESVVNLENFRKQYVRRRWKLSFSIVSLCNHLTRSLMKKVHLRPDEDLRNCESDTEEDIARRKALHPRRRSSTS
Sequence of Serine/threonine-protein kinase 24 (Homo sapiens) (Q9Y6E0 whole entry, looked up): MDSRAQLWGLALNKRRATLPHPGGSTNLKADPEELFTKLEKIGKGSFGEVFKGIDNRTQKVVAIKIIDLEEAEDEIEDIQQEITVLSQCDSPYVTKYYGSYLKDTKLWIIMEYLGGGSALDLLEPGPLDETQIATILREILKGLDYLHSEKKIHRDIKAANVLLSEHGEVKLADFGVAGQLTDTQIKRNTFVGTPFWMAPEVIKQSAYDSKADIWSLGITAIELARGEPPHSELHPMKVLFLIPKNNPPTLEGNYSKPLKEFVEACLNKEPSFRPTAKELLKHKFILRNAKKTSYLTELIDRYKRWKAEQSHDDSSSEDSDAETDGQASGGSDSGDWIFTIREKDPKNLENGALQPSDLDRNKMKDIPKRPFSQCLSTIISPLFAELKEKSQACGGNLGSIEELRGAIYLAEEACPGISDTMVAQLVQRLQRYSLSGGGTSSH
Sequence of Serine/threonine-protein kinase WNK2 (Homo sapiens) (Q9Y3S1 whole entry): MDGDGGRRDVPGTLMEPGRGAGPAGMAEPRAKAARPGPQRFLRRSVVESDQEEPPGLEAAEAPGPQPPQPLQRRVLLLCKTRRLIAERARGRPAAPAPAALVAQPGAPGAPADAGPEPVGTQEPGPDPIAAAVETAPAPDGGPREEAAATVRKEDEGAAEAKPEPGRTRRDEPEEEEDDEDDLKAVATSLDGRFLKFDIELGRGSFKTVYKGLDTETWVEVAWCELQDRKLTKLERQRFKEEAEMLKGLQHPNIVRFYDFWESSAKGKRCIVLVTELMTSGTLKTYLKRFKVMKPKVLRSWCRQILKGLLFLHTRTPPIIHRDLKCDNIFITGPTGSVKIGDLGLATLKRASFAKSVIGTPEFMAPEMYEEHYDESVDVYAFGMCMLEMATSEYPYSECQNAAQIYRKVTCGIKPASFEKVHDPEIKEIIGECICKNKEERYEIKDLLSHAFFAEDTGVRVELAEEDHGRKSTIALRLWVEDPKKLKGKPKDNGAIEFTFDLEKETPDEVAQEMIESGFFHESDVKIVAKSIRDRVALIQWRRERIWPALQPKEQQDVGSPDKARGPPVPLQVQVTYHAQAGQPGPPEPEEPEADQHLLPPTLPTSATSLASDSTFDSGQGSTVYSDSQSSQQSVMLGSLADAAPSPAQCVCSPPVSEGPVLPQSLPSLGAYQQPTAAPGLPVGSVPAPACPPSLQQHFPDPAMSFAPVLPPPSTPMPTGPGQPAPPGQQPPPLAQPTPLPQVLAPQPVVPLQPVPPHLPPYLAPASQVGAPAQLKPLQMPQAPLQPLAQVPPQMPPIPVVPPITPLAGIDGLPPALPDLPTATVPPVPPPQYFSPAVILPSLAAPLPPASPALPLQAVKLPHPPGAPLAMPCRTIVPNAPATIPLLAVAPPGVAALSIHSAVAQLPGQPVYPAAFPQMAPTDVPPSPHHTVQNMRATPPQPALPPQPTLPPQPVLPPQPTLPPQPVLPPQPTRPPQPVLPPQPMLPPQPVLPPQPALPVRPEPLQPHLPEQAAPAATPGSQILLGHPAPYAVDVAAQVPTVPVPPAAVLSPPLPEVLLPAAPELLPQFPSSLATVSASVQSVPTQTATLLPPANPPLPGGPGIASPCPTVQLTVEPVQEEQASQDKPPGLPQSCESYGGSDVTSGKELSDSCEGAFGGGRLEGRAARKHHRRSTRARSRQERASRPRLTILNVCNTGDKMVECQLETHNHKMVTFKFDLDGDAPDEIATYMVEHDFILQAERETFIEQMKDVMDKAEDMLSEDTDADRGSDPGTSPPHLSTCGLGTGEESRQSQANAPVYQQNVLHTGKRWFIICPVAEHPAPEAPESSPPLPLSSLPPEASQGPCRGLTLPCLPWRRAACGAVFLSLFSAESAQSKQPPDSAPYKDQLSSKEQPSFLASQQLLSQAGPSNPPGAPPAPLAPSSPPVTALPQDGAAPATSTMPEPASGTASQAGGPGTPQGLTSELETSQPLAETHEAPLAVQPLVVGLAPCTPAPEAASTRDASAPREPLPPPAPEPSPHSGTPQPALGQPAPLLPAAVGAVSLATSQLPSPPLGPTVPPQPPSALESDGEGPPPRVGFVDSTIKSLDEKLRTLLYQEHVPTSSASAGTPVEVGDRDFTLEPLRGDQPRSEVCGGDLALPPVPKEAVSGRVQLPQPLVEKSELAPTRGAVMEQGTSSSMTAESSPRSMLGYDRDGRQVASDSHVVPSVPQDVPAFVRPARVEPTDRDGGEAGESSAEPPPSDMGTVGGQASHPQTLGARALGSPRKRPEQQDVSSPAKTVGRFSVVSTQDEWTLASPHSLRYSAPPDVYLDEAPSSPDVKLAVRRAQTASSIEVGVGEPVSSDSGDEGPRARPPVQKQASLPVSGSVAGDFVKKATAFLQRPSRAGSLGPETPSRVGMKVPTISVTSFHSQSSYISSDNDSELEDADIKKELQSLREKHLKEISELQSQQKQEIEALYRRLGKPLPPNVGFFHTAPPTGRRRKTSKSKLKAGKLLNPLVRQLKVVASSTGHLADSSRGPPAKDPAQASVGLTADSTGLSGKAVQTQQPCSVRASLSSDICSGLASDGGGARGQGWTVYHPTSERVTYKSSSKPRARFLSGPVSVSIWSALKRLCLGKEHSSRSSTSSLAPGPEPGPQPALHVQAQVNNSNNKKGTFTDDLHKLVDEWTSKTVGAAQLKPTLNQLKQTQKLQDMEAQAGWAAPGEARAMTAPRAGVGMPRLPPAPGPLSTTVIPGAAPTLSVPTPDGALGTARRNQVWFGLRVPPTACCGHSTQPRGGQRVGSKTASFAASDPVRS
Sequence of Cyclin-dependent kinase 8 (Homo sapiens) (P49336 whole entry): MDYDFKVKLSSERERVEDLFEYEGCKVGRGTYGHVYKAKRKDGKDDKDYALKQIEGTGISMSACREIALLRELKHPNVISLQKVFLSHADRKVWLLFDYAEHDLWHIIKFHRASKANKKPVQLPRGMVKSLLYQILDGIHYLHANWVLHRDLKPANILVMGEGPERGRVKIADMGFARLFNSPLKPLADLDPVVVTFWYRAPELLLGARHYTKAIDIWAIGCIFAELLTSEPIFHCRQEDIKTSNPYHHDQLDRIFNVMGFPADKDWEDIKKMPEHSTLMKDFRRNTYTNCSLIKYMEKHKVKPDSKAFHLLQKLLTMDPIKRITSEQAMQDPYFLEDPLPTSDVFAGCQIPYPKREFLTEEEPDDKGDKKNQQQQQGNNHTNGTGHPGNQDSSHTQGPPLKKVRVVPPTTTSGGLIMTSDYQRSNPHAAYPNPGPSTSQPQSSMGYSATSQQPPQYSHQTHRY
Sequence of Epidermal growth factor receptor (Homo sapiens), P00533 [UNDEFINED MUTATION] (P00533 whole entry, looked up, change not shown, canonical isoform): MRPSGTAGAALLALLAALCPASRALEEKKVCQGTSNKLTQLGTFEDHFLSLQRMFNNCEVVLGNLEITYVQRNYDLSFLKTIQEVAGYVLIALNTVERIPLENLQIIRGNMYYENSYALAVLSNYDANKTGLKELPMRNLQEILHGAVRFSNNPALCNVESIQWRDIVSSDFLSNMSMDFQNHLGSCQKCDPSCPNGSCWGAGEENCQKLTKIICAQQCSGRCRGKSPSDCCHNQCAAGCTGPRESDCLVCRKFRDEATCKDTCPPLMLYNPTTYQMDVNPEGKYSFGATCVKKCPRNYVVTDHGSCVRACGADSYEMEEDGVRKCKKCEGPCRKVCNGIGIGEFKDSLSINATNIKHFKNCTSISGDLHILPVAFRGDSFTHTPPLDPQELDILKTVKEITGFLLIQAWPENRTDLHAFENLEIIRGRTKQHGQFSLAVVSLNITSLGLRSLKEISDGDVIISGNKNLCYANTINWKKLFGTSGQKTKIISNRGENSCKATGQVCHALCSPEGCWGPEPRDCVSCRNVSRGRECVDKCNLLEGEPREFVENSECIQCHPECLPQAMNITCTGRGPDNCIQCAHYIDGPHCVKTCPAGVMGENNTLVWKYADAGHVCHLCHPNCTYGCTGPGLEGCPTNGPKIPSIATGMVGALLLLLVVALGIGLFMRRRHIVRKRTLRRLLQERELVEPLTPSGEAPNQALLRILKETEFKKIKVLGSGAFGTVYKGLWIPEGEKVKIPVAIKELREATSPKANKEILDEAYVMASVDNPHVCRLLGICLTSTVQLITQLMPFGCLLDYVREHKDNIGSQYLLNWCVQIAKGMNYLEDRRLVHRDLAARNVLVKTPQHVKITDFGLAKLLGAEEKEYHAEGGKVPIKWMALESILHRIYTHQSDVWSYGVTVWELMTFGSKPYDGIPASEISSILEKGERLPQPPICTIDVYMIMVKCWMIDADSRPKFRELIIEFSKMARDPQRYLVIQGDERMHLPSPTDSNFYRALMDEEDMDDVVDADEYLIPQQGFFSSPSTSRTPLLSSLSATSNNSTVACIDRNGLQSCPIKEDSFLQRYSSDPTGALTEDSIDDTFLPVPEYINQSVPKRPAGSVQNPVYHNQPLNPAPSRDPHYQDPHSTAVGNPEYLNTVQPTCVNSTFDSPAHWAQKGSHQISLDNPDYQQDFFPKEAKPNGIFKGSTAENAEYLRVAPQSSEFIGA
Sequence of Sigma non-opioid intracellular receptor 1 (Q99720 whole entry): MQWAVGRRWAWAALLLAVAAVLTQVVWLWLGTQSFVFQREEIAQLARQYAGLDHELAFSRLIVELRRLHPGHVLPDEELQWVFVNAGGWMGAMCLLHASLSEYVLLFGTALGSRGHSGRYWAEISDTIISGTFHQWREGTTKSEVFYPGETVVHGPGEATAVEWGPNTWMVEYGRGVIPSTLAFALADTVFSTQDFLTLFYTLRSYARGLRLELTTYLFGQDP

CN1CCN(c2cnc3c(C4CCN(C(=O)c5ccc(OC(F)(F)F)cc5N)CC4)ncnc3c2)CC1 [BAY-885]
inhibition [1]: 72.4%
residual activity [2]: 100%
residual activity [3]: 100%
residual activity [4]: 88%
residual activity [5]: 100%
residual activity [6]: 100%
residual activity [7]: 97%
residual activity [8]: 100%
inhibition [9]: 3.17%
residual activity [10]: 100%
residual activity [11]: 100%
residual activity [12]: 100%
residual activity [13]: 83%
residual activity [14]: 100%
residual activity [15]: 100%
residual activity [16]: 100%
residual activity [17]: 100%
residual activity [18]: 100%
residual activity [19]: 90%
residual activity [20]: 100%
residual activity [21]: 100%
inhibition [22]: 4.33%
residual activity [23]: 100%

Cc1nc(C2CCN(C(=O)c3ccc(OC(F)(F)F)cc3N)CC2)c2ncc(N3CCN(C)CC3)cc2n1 [BAY-693]
inhibition [1]: 72.7%
residual activity [2]: 88%
residual activity [3]: 94%
residual activity [4]: 96%
residual activity [5]: 100%
residual activity [6]: 100%
residual activity [7]: 100%
residual activity [8]: 96%
inhibition [9]: 2.76%
residual activity [10]: 100%
residual activity [11]: 100%
residual activity [12]: 100%
residual activity [13]: 100%
residual activity [14]: 100%
residual activity [15]: 93%
residual activity [16]: 100%
residual activity [17]: 99%
residual activity [18]: 100%
residual activity [19]: 100%
residual activity [20]: 97%
residual activity [21]: 99%
inhibition [22]: 4.68%
residual activity [23]: 100%
